According to US20160122340A1, “HISTONE DEACETYLASE INHIBITORS BASED ON DERIVATIVES OF TRICYCLIC POLYHYDROACRIDINE AND ANALOGS POSSESSING FUSED SATURATED FIVE-AND-SEVEN-MEMBERED RINGS” (QUIMATRYX, S.L., priority 2013, published 2016):
Read-outs that look alike come from different tables or passages of the source.

Assays:
[1] = tested on: T1, Nuclear Extract from HeLa Cells; assay: HeLa nuclear extract HDAC activity inhibition; assay type: biochemical, human
T1 construct: 25 ng/μl Nuclear Extract from HeLa Cells: Prepared by high salt extraction of HeLa nuclei (human cervical cancer cell line)
Experimental: (§1) In Vitro Inhibitory Activity of Histone Deacetylase: Human Isoforms HDAC1, 2, 3, 4, 5, 6, 7, 8, 9, 10 and 11 and HeLa Cell Line Nuclear Extract (IC50 Data)
(§2) All HDAC assays were performed using acetylated AMC-labeled peptide substrate: • Substrate for isoforms HDAC1, 2, 3, 6, 10, 11 and HeLa nuclear extract assays: Acetylated fluorogenic peptide from p53 residues 379-382 (RHKKAc). • Substrate for isoforms HDAC 4, 5, 7, 9: Fluorogenic Boc-L-Lys(ε-trifluoroacetyl)-AMC. • Substrate for HDAC8 assays: Acetylated fluorogenic peptide from p53 residues 379-382 (RHKAcKAc).
[…] The reactions were carried out in a 96-well microplate for fluorometry in a 50 μl reaction volume. After the deacetylation reaction, Fluor-de-Lys-Developer (BioMol Cat. # KI-105) was added to each well to digest the deacetylated substrate, thus producing the fluorescent signal. The reaction was allowed to develop for 45 minutes at 30° C. with 5% CO2; then the fluorescent signal was measured with an excitation wavelength at 360 nm and an emission wavelength at 460 nm in a microplate-reading fluorometer (GeminiXS; Molecular Devices, Sunnyvale, Calif.). A curve of Deacetylated Standard (Biomol, Cat. # KI-142; made from 100 μM with 1:2 dilution and 10-doses, 6 μl) allowed the conversion of fluorescent signal into micromoles of deacetylated product. All experiments were performed in triplicate. IC50 was calculated by fitting the experimental data to a dose-response curve. DMSO was used as negative control; Trichostatin A (Biomol Cat. # GR-309) was used as positive control inhibitor.

Human HDAC1 [2] = target: T2, Human HDAC1 (Homo sapiens, UniProt Q13547); assay: In vitro HDAC1 inhibition, fluorogenic peptide substrate; assay type: biochemical; settings: No preincubation; read-out: IC50 (μM) HDAC-1
T2 construct: Full length with C-terminal GST tag, MW=79.9 kDa; GST (C); purchased BioMol SE-456; host or cells: baculovirus / Sf9 cells
T2 sequence (Q13547 whole entry): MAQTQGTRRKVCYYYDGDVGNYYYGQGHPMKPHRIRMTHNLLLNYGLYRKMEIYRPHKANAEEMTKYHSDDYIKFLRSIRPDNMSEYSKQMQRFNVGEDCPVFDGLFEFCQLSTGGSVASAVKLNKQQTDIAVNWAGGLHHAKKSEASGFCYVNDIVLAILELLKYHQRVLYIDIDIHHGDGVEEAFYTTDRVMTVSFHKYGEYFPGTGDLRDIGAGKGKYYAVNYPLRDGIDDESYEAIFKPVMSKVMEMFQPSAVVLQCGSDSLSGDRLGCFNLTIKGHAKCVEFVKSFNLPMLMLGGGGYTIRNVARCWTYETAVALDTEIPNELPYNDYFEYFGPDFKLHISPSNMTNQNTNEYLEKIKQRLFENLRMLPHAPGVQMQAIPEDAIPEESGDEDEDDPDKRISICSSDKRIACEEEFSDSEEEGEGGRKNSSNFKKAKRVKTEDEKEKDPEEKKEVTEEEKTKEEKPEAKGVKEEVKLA
Experimental: as §1, §2
(§3) 50 μM of substrate peptide (see ‘substrate peptides’ section above) and an optimal concentration of the corresponding enzyme (see ‘enzymes’ section above) in the assay buffer and 1% final concentration of DMSO were incubated in the presence of gradient concentrations of inhibitors (10-dose IC50 mode with 3-fold serial dilution) at 30° C. for 2 h. The reactions were carried out in a 96-well microplate for fluorometry in a 50 μl reaction volume. After the deacetylation reaction, Fluor-de-Lys-Developer (BioMol Cat. # KI-105) was added to each well to digest the deacetylated substrate, thus producing the fluorescent signal. The reaction was allowed to develop for 45 minutes at 30° C. with 5% CO2; then the fluorescent signal was measured with an excitation wavelength at 360 nm and an emission wavelength at 460 nm in a microplate-reading fluorometer (GeminiXS; Molecular Devices, Sunnyvale, Calif.). A curve of Deacetylated Standard (Biomol, Cat. # KI-142; made from 100 μM with 1:2 dilution and 10-doses, 6 μl) allowed the conversion of fluorescent signal into micromoles of deacetylated product. All experiments were performed in triplicate. IC50 was calculated by fitting the experimental data to a dose-response curve. DMSO was used as negative control; Trichostatin A (Biomol Cat. # GR-309) was used as positive control inhibitor.

Human HDAC2 = target: T3, Human HDAC2 (Homo sapiens, UniProt Q92769); assay: In vitro HDAC2 inhibition, fluorogenic peptide substrate; assay type: biochemical; settings: read-out: IC50 (μM) HDAC-2
T3 construct: Full length with C-terminal His tag, MW=60 kDa; His (C); purchased BioMol SE-500; host or cells: baculovirus / Sf9 cells
T3 sequence (Q92769 whole entry): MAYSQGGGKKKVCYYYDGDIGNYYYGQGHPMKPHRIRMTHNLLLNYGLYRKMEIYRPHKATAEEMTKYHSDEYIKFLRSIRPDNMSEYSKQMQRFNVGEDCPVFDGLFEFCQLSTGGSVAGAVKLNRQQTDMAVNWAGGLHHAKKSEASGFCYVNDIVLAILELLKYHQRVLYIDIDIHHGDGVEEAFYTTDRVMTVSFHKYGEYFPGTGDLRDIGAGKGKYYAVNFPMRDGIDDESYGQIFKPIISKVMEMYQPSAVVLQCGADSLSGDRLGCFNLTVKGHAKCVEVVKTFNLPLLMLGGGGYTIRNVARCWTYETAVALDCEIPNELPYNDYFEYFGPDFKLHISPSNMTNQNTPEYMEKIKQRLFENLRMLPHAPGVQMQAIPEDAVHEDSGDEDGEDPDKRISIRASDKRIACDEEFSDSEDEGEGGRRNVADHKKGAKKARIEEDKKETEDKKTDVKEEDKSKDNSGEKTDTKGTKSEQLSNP
Experimental: as §1, §2, §3

Human HDAC6 = target: T4, Human HDAC6 (Homo sapiens, UniProt Q9UBN7); assay: In vitro HDAC6 inhibition, fluorogenic peptide substrate; assay type: biochemical; settings: No preincubation; read-out: IC50 (μM) HDAC-6
T4 construct: Full length with N-terminal GST tag, MW=159 kDa; GST (N); purchased BioMol SE-508; host or cells: baculovirus / Sf9 cells
T4 sequence (Q9UBN7 1-1215): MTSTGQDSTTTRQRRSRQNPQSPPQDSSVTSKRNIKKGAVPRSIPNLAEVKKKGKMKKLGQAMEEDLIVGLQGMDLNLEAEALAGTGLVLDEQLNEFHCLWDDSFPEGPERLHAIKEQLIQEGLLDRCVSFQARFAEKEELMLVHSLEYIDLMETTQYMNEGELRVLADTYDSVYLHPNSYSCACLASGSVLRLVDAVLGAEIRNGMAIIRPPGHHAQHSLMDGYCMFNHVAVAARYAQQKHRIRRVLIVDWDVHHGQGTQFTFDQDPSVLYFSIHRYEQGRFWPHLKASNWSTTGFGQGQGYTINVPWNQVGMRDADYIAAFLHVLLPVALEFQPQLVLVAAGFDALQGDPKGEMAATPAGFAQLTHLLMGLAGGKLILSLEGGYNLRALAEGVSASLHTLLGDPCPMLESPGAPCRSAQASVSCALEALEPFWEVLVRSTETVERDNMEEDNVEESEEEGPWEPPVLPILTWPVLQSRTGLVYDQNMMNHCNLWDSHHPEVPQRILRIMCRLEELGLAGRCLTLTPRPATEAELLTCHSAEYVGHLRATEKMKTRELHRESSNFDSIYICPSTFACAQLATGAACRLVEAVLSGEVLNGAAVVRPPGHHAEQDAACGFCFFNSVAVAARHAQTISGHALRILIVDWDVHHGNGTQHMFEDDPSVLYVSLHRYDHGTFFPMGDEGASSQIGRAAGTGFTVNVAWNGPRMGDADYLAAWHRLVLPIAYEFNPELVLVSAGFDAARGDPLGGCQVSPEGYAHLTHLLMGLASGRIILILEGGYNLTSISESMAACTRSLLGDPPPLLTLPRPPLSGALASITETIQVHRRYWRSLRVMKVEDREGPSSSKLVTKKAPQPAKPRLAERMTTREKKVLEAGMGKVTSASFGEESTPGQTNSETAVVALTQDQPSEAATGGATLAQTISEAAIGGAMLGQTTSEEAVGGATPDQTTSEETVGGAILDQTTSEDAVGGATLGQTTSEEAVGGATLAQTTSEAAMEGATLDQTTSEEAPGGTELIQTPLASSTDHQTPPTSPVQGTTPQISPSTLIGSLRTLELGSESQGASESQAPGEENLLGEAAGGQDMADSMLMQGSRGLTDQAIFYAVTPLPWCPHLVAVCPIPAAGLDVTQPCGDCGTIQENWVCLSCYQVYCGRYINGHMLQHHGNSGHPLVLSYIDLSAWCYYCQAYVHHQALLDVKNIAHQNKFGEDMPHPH
Experimental: as §1, §2, §3

Human HDAC1 [3] = target: T2, Human HDAC1; assay: In vitro HDAC1 inhibition, fluorogenic peptide substrate; assay type: biochemical; settings: 4 h preincubation; read-out: IC50 (μM) HDAC-1

Compound	melting point [°C]	IC50 [1] [µM]	IC50 (Human HDAC1 [2]) [µM]	IC50 (Human HDAC2; No preincubation) [µM]	IC50 (Human HDAC6) [µM]	IC50 (Human HDAC2; 4 h preincubation) [µM]	IC50 (Human HDAC1 [3]) [µM]	IC50 ([1]; 4 h preincubation) [µM]	IC50 ([1]; No preincubation) [µM]
O=C(CCCCCCNc1c2c(nc3c(O)cccc13)CCCC2)NO [Example 6, N-hydroxy-7-[(5-hydroxy-1,2,3,4-tetrahydroacridin-9-yl)amino]heptanamide]	73								
O=C(NO)c1ccc(CNc2c3c(nc4ccccc24)CCCC3)cc1 [Example 9, N-hydroxy-4-{[(1,2,3,4-tetrahydroacridin-9-yl)amino]methyl}benzamide]	204 to 205	0.9							
Cc1ccc(NC(=O)CCCCCCNc2c3c(nc4ccccc24)CCCC3)c(N)c1 [Example 12, N-(2-amino-4-methylphenyl)-7-[(1,2,3,4-tetrahydroacridin-9-yl)amino]heptanamide]	63 to 64		> 50	> 50	> 50				
Cc1ccc(N)c(NC(=O)CCCCCCNc2c3c(nc4ccccc24)CCCC3)c1 [Example 13, N-(2-amino-5-methylphenyl)-7-((1,2,3,4-tetrahydroacridin-9-yl)amino)heptanamide]	204 to 205		57.3	62.9	> 50	54.3	> 50		
CC(C)(C)c1ccc(N)c(NC(=O)CCCCCCNc2c3c(nc4ccccc24)CCCC3)c1 [Example 14, N-[2-amino-5-(tert-butyl)phenyl]-7-[(1,2,3,4-tetrahydroacridin-9-yl)amino]heptanamide]	75 to 76		> 50	> 50		> 50	> 50	> 50	> 50
Nc1ccc(-c2ccccc2)cc1NC(=O)CCCCCCNc1c2c(nc3ccccc13)CCCC2 [Example 15, N-(4-amino-[1,1′-biphenyl]-3-yl)-7-[(1,2,3,4-tetrahydroacridin-9-yl)amino]heptanamide]	101 to 102		1.26	1.7	13.2	0.079	1.48	3.99	4.68
Nc1ccc(-c2ccccc2)cc1NC(=O)CCCCCNc1c2c(nc3ccccc13)CCCC2 [Example 16, N-(4-Amino-[1,1′-biphenyl]-3-yl)-6-[(1,2,3,4-tetrahydroacridin-9-yl)amino]hexanamide]	75 to 76								
Cc1cccc(-c2ccc(N)c(NC(=O)CCCCCCNc3c4c(nc5ccccc35)CCCC4)c2)c1 [Example 17, N-(4-amino-3′-methyl-[1,1′-biphenyl]-3-yl)-7-[(1,2,3,4-tetrahydroacridin-9-yl)amino]heptanamide]	53 to 54		250	188		76	118	73.6	84.1
CC(C)(C)c1ccc(-c2ccc(N)c(NC(=O)CCCCCCNc3c4c(nc5ccccc35)CCCC4)c2)cc1 [Example 18, N-{4-amino-4′-(tert-butyl)-[1,1′-biphenyl]-3-yl}-7-[(1,2,3,4-tetrahydroacridin-9-yl)amino]heptanamide]	55 to 56		46.7	> 50		65.9	48.1	25.5	429
Nc1ccc(-c2ccc3ccccc3c2)cc1NC(=O)CCCCCCNc1c2c(nc3ccccc13)CCCC2 [Example 19, N-[2-amino-5-(naphthalen-2-yl)phenyl]-7-[(1,2,3,4-tetrahydroacridin-9-yl)amino]heptanamide]	100 to 101		> 50	> 50		72.7	139	39.3	17.7
Nc1ncc(-c2ccccc2)cc1NC(=O)CCCCCCNc1c2c(nc3ccccc13)CCCC2 [Example 20, N-(2-amino-5-phenylpyridin-3-yl)-7-[(1,2,3,4-tetrahydroacridin-9-yl)amino]heptanamide]	49 to 50		594	> 50		> 50	> 50	109	> 50
Nc1ccc(-c2cccnc2)cc1NC(=O)CCCCCCNc1c2c(nc3ccccc13)CCCC2 [Example 21, N-[2-amino-5-(pyridin-3-yl)phenyl]-7-[(1,2,3,4-tetrahydroacridin-9-yl)amino]heptanamide]			3.97	3.37		2.79	8.55	30.7	78.1
